Data taken from patent publication US20250002492A1, “COMPOSITIONS OF FOLATE ABSORPTION INHIBITORS AND METHODS THEREOF” (THE TEXAS A&M UNIVERSITY SYSTEM, priority 2023, published 2025).
Read-outs that look alike come from different tables or passages of the source.

What was measured:
yeast cells = assay: Yeast cell proliferation; type: cell-based, S. cerevisiae; details: low doses (0.5-10 μM); not shown
[1] = tested on: S. cerevisiae strain BY4742; assay: Replicative lifespan assay in yeast; type: cell-based
Description: The assays were performed in the standard S. cerevisiae strain BY4742 (MATα his3Δ1 leu2Δ0 lys2Δ0 ura3Δ0) on solid rich undefined media (YPD; 1% w/v yeast extract, 2% W/v peptone, 2% W/v dextrose, 2% w/v agar).
(§1) In the instant example, methotrexate (MTX), or the ATIC inhibitor (ATIC-Inh), was dissolved in dimethylsulfoxide (DMSO) and used at the final concentrations shown in FIGS. 2B-2D. The cell size measurements shown in FIG. 3 were also done in strain BY4742 in YPD.

C. elegans strain N2 = assay: Lifespan assay in worms; type: in vivo
Excerpt: The ability of pharmacological or other interventions to extend the lifespan of different organisms is often conserved. For the instant example, the disclosed compounds can be tested for their ability to extend the lifespan of the worm model system Caenorhabditis elegans (N2 strain) [see, e.g., PMID: 19488025]. The organisms can be first exposed to the compounds as adults, 2-3 days after the egg stage until their death, on solid media containing the compounds at the desired concentration. The temperature can be kept constant at 20° C. throughout the assays. The bacteria used as food for the worms (Escherichia coli strain OP-50) can be dead (e.g., killed by lethal doses of ultraviolet radiation) to ensure that any effects on lifespan are not indirect, mediated through bacterial metabolism.
The assays were performed at 20° C. using C. elegans strain N2 and a bacterial strain (OP50) commonly used as food for the worms. Briefly, the assays were performed on solid agar nematode growth media (NGM) plates prepared fresh before each experiment. The bacterial lawn was exposed twice to a UV dose of 120 mJ/cm^2 using a UVC-515 Ultraviolet Multilinker (Ultra-Lum, Inc.). Streaking these UV-exposed bacteria to fresh LB agar plates (1% w/v tryptone, 0.5% w/v yeast extract, 1% w/v sodium chloride) produced no visible colonies. Methotrexate, or the ATIC inhibitor, was first dissolved in DMSO and then added to the media used to prepare the plates after autoclaving (the media were kept in a 50° C. water bath until the plates were poured). Mock-treated control plates contained only DMSO. At the start of each experiment, a sufficient number of eggs were collected from plates without any drugs and then placed on plates containing the indicated doses of each compound tested. After hatching and progression to the adult stage, animals were transferred to new plates (marked as the start of the lifespan assay) containing the drug tested and fluorodeoxyuridine (FUDR; dissolved in water), added at 50 μM to block hatching of new animals. The plates were scored at least every other day until all the worms died. If an animal responded to gentle touch, it was scored as alive, otherwise a death was recorded, and the animal was removed from the plate. Worms were transferred to fresh plates as needed (e.g., if there was evidence of microbial contamination, dryness/cracks on the agar surface, consumption of the bacterial lawn, or hatching of new animals that escaped the FUDR block). The reported lifespans were compiled from several independent experiments done over several months (9-10 months for the methotrexate experiments and 4-5 months for the ATIC inhibitor), each scored by multiple individuals (4-5 persons per experiment). No experiments were excluded from the analysis.

C. elegans = details: 220 μM, treated at the adult stage; cited from earlier work
mice = details: cited from earlier work
Swiss mice = details: 0-10 ppm in the diet in alternating weeks, male and female, 7 to 120 weeks of age; 5 of the 8 conditions tested; one case p=0.04; cited from earlier work
[2] = tested on: S. cerevisiae strain BY4742; assay: Cell size measurement in yeast (Z2 Channelyzer); type: cell-based; details: from 47 fL
Description: as §1
Briefly, overnight cultures were diluted to about 5×10^5 cells/mL in fresh media, allowed to proliferate for 2-3 h at 30° C., and then methotrexate was added at the indicated final concentrations. 4-5 h later, cell size was measured with a Z2 Channelyzer.

CN(Cc1cnc2nc(N)nc(N)c2n1)c1ccc(C(=O)N[C@@H](CCC(=O)O)C(=O)O)cc1 [methotrexate, 4-amino-N10-methylpteroylglutamic acid]
cell proliferation (yeast cells): did not affect cell proliferation significantly | yeast replicative lifespan ([1]; 0.5-10 μM, p<0.05 log-rank test): increased yeast replicative lifespan | maximal lifespan extension ([1]; dose 1 μM): ~15% | yeast replicative longevity ([1]; higher concentrations (above 10 μM; 50-100 μM)): did not extend replicative longevity | lifespan extension (C. elegans strain N2; 1-3 μM, continuous exposure from embryo stage until death, p<2E-14 log-rank): ~15% | lifespan (C. elegans strain N2; higher doses 10-100 μM, not shown): did not extend lifespan | lifespan (C. elegans): did not extend their lifespan | LD50 (mice; 5-week-old mice): 59 mg/kg | LD50 (mice; 16-week-old mice): 284 mg/kg | mean lifespan vs control group (Swiss mice): mean lifespan was longer than in the control group | cell size ([2]; 50 μM): 56 fL | cell size ([2]; 100 μM): 64 fL | cell size ([2]; concentrations up to 10 μM): 52 fL
